Data published in PubChem BioAssay (NCI).
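Cultured in 96-well plates, cells were exposed to test compound for 48 hours across five concentrations. GI50 marks 50% less growth. At the TGI there is no net growth.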

Assays:
Assay in all cases: growth of human tumour cells (NCI), 48 h
PC-3 prostate = test system: PC-3 prostate
HCC-2998 colon = test system: HCC-2998 colon
HOP-92 NSCLC = test system: HOP-92 NSCLC
SN12C renal = test system: SN12C renal
HT29 colon = test system: HT29 colon
NCI-H226 lung = test system: NCI-H226 lung
TK-10 renal = test system: TK-10 renal
HOP-62 NSCLC = test system: HOP-62 NSCLC
SNB-19 CNS = test system: SNB-19 CNS
OVCAR-3 ovarian = test system: OVCAR-3 ovarian
OVCAR-8 ovarian = test system: OVCAR-8 ovarian
HL-60(TB) leukemia = test system: HL-60(TB) leukemia
UACC-257 melanoma = test system: UACC-257 melanoma
ACHN renal = test system: ACHN renal
MDA-MB-435 = test system: MDA-MB-435
A498 renal = test system: A498 renal
K-562 leukemia = test system: K-562 leukemia
A549 NSCLC = test system: A549 NSCLC
KM12 colon = test system: KM12 colon
U251 CNS = test system: U251 CNS
NCI/ADR-RES ovarian = test system: NCI/ADR-RES ovarian
MCF7 breast = test system: MCF7 breast
SF-295 CNS = test system: SF-295 CNS
SF-268 CNS = test system: SF-268 CNS
DU-145 prostate = test system: DU-145 prostate
HCT-15 colon = test system: HCT-15 colon
SK-MEL-2 melanoma = test system: SK-MEL-2 melanoma
COLO 205 colon = test system: COLO 205 colon
MDA-MB-231 breast = test system: MDA-MB-231 breast
SK-MEL-5 melanoma = test system: SK-MEL-5 melanoma
MOLT-4 leukemia = test system: MOLT-4 leukemia
IGROV1 ovarian = test system: IGROV1 ovarian
LOX IMVI melanoma = test system: LOX IMVI melanoma
RXF 393 renal = test system: RXF 393 renal
M14 melanoma = test system: M14 melanoma
NCI-H522 lung = test system: NCI-H522 lung
SF-539 CNS = test system: SF-539 CNS
CAKI-1 renal = test system: CAKI-1 renal
NCI-H23 lung = test system: NCI-H23 lung
HCT-116 colon = test system: HCT-116 colon
EKVX NSCLC = test system: EKVX NSCLC
NCI-H460 lung = test system: NCI-H460 lung
HS 578T breast = test system: HS 578T breast
RPMI-8226 leukemia = test system: RPMI-8226 leukemia
SW-620 colon = test system: SW-620 colon
786-0 renal = test system: 786-0 renal
OVCAR-5 ovarian = test system: OVCAR-5 ovarian
UACC-62 melanoma = test system: UACC-62 melanoma
UO-31 renal = test system: UO-31 renal
T-47D breast = test system: T-47D breast

How did the GI50 (PC-3 prostate) turn out when COc1cc(/C=C2\C[C@H]3[C@@H]4CC=C5C[C@@H](O)CC[C@]5(C)[C@H]4CC[C@]3(C)[C@H]2O)ccc1OCCN1CCCC1 was run?
The GI50 was 7.4 µM.

What about the TGI (PC-3 prostate) of the same compound?
Its TGI is 15.1 µM.

What about the GI50 (HCC-2998 colon) of the same compound?
Its GI50 is 10.1 µM.

And the TGI (HCC-2998 colon)?
The TGI was 20.6 µM.

What about the GI50 (HOP-92 NSCLC) of the same compound?
Its GI50 is 8.26 µM.

What about the TGI (HOP-92 NSCLC) of the same compound?
The TGI was 17.1 µM.

What about the GI50 (SN12C renal) of the same compound?
The GI50 was 8.48 µM.

What about the TGI (SN12C renal) of the same compound?
Its TGI is 17.9 µM.

What about the GI50 (HT29 colon) of the same compound?
The GI50 was 13.2 µM.

What about the TGI (HT29 colon) of the same compound?
Its TGI is > 50 µM.

What about the GI50 (NCI-H226 lung) of the same compound?
The GI50 was 9.55 µM.

What about the TGI (NCI-H226 lung) of the same compound?
Its TGI is 22.3 µM.

And the GI50 (TK-10 renal)?
Its GI50 is 11.7 µM.

And the TGI (TK-10 renal)?
Its TGI is 24.3 µM.

What about the GI50 (HOP-62 NSCLC) of the same compound?
Its GI50 is 9.67 µM.

What about the TGI (HOP-62 NSCLC) of the same compound?
Its TGI is 20.8 µM.

And the GI50 (SNB-19 CNS)?
Its GI50 is 11.8 µM.

What about the TGI (SNB-19 CNS) of the same compound?
The TGI was 31.3 µM.

And the GI50 (OVCAR-3 ovarian)?
The GI50 was 15.4 µM.

And the TGI (OVCAR-3 ovarian)?
Its TGI is 32 µM.

And the GI50 (OVCAR-8 ovarian)?
Its GI50 is 13.5 µM.

What about the TGI (OVCAR-8 ovarian) of the same compound?
The TGI was 27.2 µM.

And the GI50 (HL-60(TB) leukemia)?
The GI50 was 9.96 µM.

What about the TGI (HL-60(TB) leukemia) of the same compound?
The TGI was 19 µM.

And the GI50 (UACC-257 melanoma)?
The GI50 was 9.89 µM.

And the TGI (UACC-257 melanoma)?
The TGI was 19.8 µM.

And the GI50 (ACHN renal)?
Its GI50 is 8.38 µM.

What about the TGI (ACHN renal) of the same compound?
Its TGI is 16.9 µM.

And the GI50 (MDA-MB-435)?
The GI50 was 10.7 µM.

And the TGI (MDA-MB-435)?
The TGI was 28.2 µM.

What about the GI50 (A498 renal) of the same compound?
Its GI50 is 25.1 µM.

What about the TGI (A498 renal) of the same compound?
Its TGI is > 50 µM.

And the GI50 (K-562 leukemia)?
The GI50 was 6.86 µM.

And the TGI (K-562 leukemia)?
The TGI was 16.5 µM.

What about the GI50 (A549 NSCLC) of the same compound?
Its GI50 is 10.9 µM.

And the TGI (A549 NSCLC)?
Its TGI is 21.6 µM.

What about the GI50 (KM12 colon) of the same compound?
Its GI50 is 9.69 µM.

What about the TGI (KM12 colon) of the same compound?
Its TGI is 19.8 µM.

And the GI50 (U251 CNS)?
Its GI50 is 12.8 µM.

And the TGI (U251 CNS)?
Its TGI is 40.4 µM.

What about the GI50 (NCI/ADR-RES ovarian) of the same compound?
The GI50 was 12.6 µM.

And the TGI (NCI/ADR-RES ovarian)?
The TGI was 34.7 µM.

What about the GI50 (MCF7 breast) of the same compound?
The GI50 was 16.4 µM.

What about the TGI (MCF7 breast) of the same compound?
Its TGI is > 50 µM.

And the GI50 (SF-295 CNS)?
The GI50 was 13.6 µM.

And the TGI (SF-295 CNS)?
The TGI was 37 µM.

What about the GI50 (SF-268 CNS) of the same compound?
Its GI50 is 9.72 µM.

And the TGI (SF-268 CNS)?
The TGI was 22.8 µM.

And the GI50 (DU-145 prostate)?
The GI50 was 5.04 µM.

What about the TGI (DU-145 prostate) of the same compound?
Its TGI is 14.4 µM.

And the GI50 (HCT-15 colon)?
The GI50 was 11.8 µM.

What about the TGI (HCT-15 colon) of the same compound?
The TGI was 38 µM.

What about the GI50 (SK-MEL-2 melanoma) of the same compound?
Its GI50 is 16.4 µM.

And the TGI (SK-MEL-2 melanoma)?
Its TGI is > 50 µM.

And the GI50 (COLO 205 colon)?
The GI50 was 12.9 µM.

What about the TGI (COLO 205 colon) of the same compound?
The TGI was > 50 µM.

What about the GI50 (MDA-MB-231 breast) of the same compound?
Its GI50 is 11.7 µM.

What about the TGI (MDA-MB-231 breast) of the same compound?
The TGI was 23 µM.

What about the GI50 (SK-MEL-5 melanoma) of the same compound?
Its GI50 is 9.58 µM.

What about the TGI (SK-MEL-5 melanoma) of the same compound?
The TGI was 23.6 µM.

And the GI50 (MOLT-4 leukemia)?
The GI50 was 2.46 µM.

What about the TGI (MOLT-4 leukemia) of the same compound?
The TGI was 11.3 µM.

What about the GI50 (IGROV1 ovarian) of the same compound?
The GI50 was 17.5 µM.

And the TGI (IGROV1 ovarian)?
The TGI was > 50 µM.

What about the GI50 (LOX IMVI melanoma) of the same compound?
The GI50 was 17.9 µM.

And the TGI (LOX IMVI melanoma)?
Its TGI is > 50 µM.

What about the GI50 (RXF 393 renal) of the same compound?
Its GI50 is 9.81 µM.

And the TGI (RXF 393 renal)?
Its TGI is 23.9 µM.

What about the GI50 (M14 melanoma) of the same compound?
Its GI50 is 8.16 µM.

What about the TGI (M14 melanoma) of the same compound?
The TGI was 18.3 µM.

And the GI50 (NCI-H522 lung)?
The GI50 was 18 µM.

What about the TGI (NCI-H522 lung) of the same compound?
Its TGI is > 50 µM.

What about the GI50 (SF-539 CNS) of the same compound?
The GI50 was 8.28 µM.

And the TGI (SF-539 CNS)?
The TGI was 17.6 µM.

And the GI50 (CAKI-1 renal)?
The GI50 was 10.2 µM.

And the TGI (CAKI-1 renal)?
Its TGI is 22.1 µM.

And the GI50 (NCI-H23 lung)?
Its GI50 is 11.5 µM.

And the TGI (NCI-H23 lung)?
The TGI was 26 µM.

And the GI50 (HCT-116 colon)?
The GI50 was 8.27 µM.

What about the TGI (HCT-116 colon) of the same compound?
Its TGI is 24.8 µM.

What about the GI50 (EKVX NSCLC) of the same compound?
The GI50 was 0.104 µM.

What about the TGI (EKVX NSCLC) of the same compound?
The TGI was 7.38 µM.

What about the GI50 (NCI-H460 lung) of the same compound?
Its GI50 is 13.5 µM.

And the TGI (NCI-H460 lung)?
The TGI was 36.2 µM.

What about the GI50 (HS 578T breast) of the same compound?
Its GI50 is 11.1 µM.

And the TGI (HS 578T breast)?
The TGI was 25.1 µM.

And the GI50 (RPMI-8226 leukemia)?
Its GI50 is 5.53 µM.

What about the TGI (RPMI-8226 leukemia) of the same compound?
Its TGI is 25.5 µM.

And the GI50 (SW-620 colon)?
The GI50 was 23.7 µM.

What about the TGI (SW-620 colon) of the same compound?
Its TGI is > 50 µM.

And the GI50 (786-0 renal)?
The GI50 was 6.16 µM.

And the TGI (786-0 renal)?
Its TGI is 16 µM.

What about the GI50 (OVCAR-5 ovarian) of the same compound?
Its GI50 is 8.57 µM.

What about the TGI (OVCAR-5 ovarian) of the same compound?
The TGI was 19.8 µM.

What about the GI50 (UACC-62 melanoma) of the same compound?
The GI50 was 8.9 µM.

And the TGI (UACC-62 melanoma)?
Its TGI is 16.9 µM.

And the GI50 (UO-31 renal)?
Its GI50 is 10.3 µM.

What about the TGI (UO-31 renal) of the same compound?
The TGI was 22.4 µM.

And the GI50 (T-47D breast)?
Its GI50 is 19.9 µM.

And the TGI (T-47D breast)?
The TGI was > 50 µM.
